In patent US10758534B2 (Vertex Pharmaceuticals Incorporated, priority 2014, dated 2020):

Target: T1, F508del (Homo sapiens, UniProt P13569, DEL508-508)
T1 construct: expressed in transfected cells
Test: Protocol 1: membrane potential optical assay (FLIPR III, voltage sensing dye), identification of potentiator compounds
Format: cell-based
Details: Table 3, compounds of Table 1
Summary of the method: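 Gating potentiation is read as a membrane-potential fluorescence change (FLIPR III, voltage-sensing dye) after one forskolin addition under a Cl− gradient, with gluconate replacing chloride, pH 7.4. Cells are F508del-expressing NIH3T3 mouse fibroblasts held 24 h at 27 °C and exposed to compound before dye loading.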

T1 sequence (P13569 with tags, fused parts or gaps DEL508-508): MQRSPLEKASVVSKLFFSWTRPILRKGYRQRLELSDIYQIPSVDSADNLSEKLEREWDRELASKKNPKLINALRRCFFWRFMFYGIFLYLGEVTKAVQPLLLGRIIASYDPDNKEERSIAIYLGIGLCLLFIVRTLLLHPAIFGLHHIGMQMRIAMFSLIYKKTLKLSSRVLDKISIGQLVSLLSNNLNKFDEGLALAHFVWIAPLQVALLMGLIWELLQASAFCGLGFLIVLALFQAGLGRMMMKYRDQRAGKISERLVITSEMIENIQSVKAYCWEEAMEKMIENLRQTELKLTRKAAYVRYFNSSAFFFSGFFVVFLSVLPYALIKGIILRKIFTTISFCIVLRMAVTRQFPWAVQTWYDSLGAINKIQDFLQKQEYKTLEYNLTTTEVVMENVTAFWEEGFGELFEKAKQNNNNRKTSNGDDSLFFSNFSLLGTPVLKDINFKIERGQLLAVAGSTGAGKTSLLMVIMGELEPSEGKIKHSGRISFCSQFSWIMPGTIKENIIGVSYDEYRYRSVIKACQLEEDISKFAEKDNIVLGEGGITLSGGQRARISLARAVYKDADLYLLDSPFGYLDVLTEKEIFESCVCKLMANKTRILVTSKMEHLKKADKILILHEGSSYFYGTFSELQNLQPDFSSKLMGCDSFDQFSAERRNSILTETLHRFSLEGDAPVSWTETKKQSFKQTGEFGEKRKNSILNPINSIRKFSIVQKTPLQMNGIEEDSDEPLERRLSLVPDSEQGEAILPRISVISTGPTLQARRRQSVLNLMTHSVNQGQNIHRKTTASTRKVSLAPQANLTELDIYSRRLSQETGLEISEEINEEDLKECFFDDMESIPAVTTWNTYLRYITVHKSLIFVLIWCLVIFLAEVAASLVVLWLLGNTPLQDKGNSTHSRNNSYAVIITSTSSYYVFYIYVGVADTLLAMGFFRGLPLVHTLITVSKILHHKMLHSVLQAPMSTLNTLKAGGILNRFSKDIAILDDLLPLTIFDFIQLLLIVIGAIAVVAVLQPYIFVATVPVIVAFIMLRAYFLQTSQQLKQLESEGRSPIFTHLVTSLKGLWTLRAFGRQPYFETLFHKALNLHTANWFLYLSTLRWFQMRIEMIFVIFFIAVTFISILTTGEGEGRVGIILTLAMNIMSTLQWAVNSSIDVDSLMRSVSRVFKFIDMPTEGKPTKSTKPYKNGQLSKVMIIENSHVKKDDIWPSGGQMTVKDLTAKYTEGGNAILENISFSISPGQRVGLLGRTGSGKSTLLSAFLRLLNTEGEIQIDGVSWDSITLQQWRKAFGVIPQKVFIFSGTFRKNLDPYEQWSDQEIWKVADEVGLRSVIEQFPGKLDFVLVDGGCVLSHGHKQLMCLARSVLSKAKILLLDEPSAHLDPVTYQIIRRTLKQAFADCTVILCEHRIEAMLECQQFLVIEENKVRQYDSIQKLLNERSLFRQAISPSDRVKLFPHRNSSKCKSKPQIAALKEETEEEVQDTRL

Row | Compound | EC30
1 | CC(C)COc1cc(F)cc(-c2ccc(C(=O)NS(=O)(=O)c3ccn[nH]3)c(N3C(C)CC(c4ccccc4)C3C)n2)c1 (stereo not drawn) [Compound 1348, 2-(2,5-dimethyl-3-phenyl-pyrrolidin-1-yl)-6-(3-fluoro-5-isobutoxy-phenyl)-N-(1H-pyrazol-5-ylsulfonyl)pyridine-3-carboxamide] | +++ (“+++” means <3 uM)
2 | Cc1ccc(-c2nc(-c3cc(F)cc(OC(C)C)c3)ccc2C(=O)NS(=O)(=O)c2nccnc2N)cc1 [Compound 1351, N-(3-aminopyrazin-2-yl)sulfonyl-6-(3-fluoro-5-isopropoxy-phenyl)-2-(p-tolyl)pyridine-3-carboxamide] | ++ (“++” means between 3 uM and 10 uM)
3 | Cc1cc(C)c(Oc2nc(-c3ccccn3)ccc2C(=O)NS(=O)(=O)c2cc[nH]n2)c(C)c1 [Compound 1353, N-(1H-pyrazol-3-ylsulfonyl)-6-(2-pyridyl)-2-(2,4,6-trimethylphenoxy)pyridine-3-carboxamide] | + (“+” means greater than 10 uM)
4 | Cc1ccc(-c2nc(C(C)(C)C)ccc2C(=O)NS(=O)(=O)c2ccc(C)cn2)cc1 [Compound 1355, 6-tert-butyl-N-[(5-methyl-2-pyridyl)sulfonyl]-2-(p-tolyl)pyridine-3-carboxamide] | ++ (“++” means between 3 uM and 10 uM)
5 | CC(C)COc1cc(F)cc(-c2ccc(C(=O)NS(=O)(=O)c3ccccc3)c(N3C[C@@H](C)CC3(C)C)n2)c1 [Compound 1356, N-(benzenesulfonyl)-6-(3-fluoro-5-isobutoxy-phenyl)-2-[(4S)-2,2,4-trimethylpyrrolidin-1-yl]pyridine-3-carboxamide] | +++ (“+++” means <3 uM)
6 | Cc1cc(C)c(Oc2nc(C3CCCCC3)ccc2C(=O)NS(=O)(=O)c2ccc[nH]c2=O)c(C)c1 [Compound 1357, 6-cyclohexyl-N-[(2-oxo-1H-pyridin-3-yl)sulfonyl]-2-(2,4,6-trimethylphenoxy)pyridine-3-carboxamide] | +++ (“+++” means <3 uM)
7 | Cc1cccc(C)c1Cn1nc(C(C)(C)C)cc1C(=O)NS(=O)(=O)c1cccc2cc[nH]c12 [Compound 1358, 5-tert-butyl-2-[(2,6-dimethylphenyl)methyl]-N-(1H-indol-7-ylsulfonyl)pyrazole-3-carboxamide] | +++ (“+++” means <3 uM)
8 | CC(C)COc1cc(F)cc(-c2ccc(C(=O)NS(=O)(=O)N3CC[C@@H](N)C3)c(N3C[C@@H](C)CC3(C)C)n2)c1 [Compound 1360, N-[(3R)-3-aminopyrrolidin-1-yl]sulfonyl-6-(3-fluoro-5-isobutoxy-phenyl)-2-[(4S)-2,2,4-trimethylpyrrolidin-1-yl]pyridine-3-carboxamide] | +++ (“+++” means <3 uM)
9 | CC(C)COc1cc(F)cc(-c2ccc(C(=O)NS(=O)(=O)c3cccc(N)n3)c(OC(C)CC3CCOCC3)n2)c1 (stereo not drawn) [Compound 1361, N-[(6-amino-2-pyridyl)sulfonyl]-6-(3-fluoro-5-isobutoxy-phenyl)-2-(1-methyl-2-tetrahydropyran-4-yl-ethoxy)pyridine-3-carboxamide] | +++ (“+++” means <3 uM)
10 | CC(C)COc1cc(F)cc(-c2ccc(C(=O)NS(=O)(=O)c3cccc(N)n3)c(N3C[C@@H](F)C[C@H]3C)n2)c1 [Compound 1362, N-[(6-amino-2-pyridyl)sulfonyl]-6-(3-fluoro-5-isobutoxy-phenyl)-2-[(2R,4S)-4-fluoro-2-methyl-pyrrolidin-1-yl]pyridine-3-carboxamide] | +++ (“+++” means <3 uM)
11 | CC(C)COc1cc(F)cc(-c2ccc(C(=O)NS(=O)(=O)c3cccc(N)n3)c(OC(C)(C)Cc3ccccc3)n2)c1 [Compound 1365, N-[(6-amino-2-pyridyl)sulfonyl]-2-(1,1-dimethyl-2-phenyl-ethoxy)-6-(3-fluoro-5-isobutoxy-phenyl)pyridine-3-carboxamide] | +++ (“+++” means <3 uM)
12 | CCCc1ccc(S(=O)(=O)NC(=O)C2(C)c3cccc(OCC)c3CN2Cc2c(C)cc(C)cc2C)cc1N (stereo not drawn) [Compound 1367, N-(3-amino-4-propyl-phenyl)sulfonyl-4-ethoxy-1-methyl-2-[(2,4,6-trimethylphenyl)methyl]isoindoline-1-carboxamide] | +++ (“+++” means <3 uM)
13 | CC(C)COc1cc(F)cc(-c2ccc(C(=O)NS(=O)(=O)c3cccc(N)n3)c(C3=CC(C)(C)OC(C)(C)C3)n2)c1 [Compound 1368, N-[(6-amino-2-pyridyl)sulfonyl]-6-(3-fluoro-5-isobutoxy-phenyl)-2-(2,2,6,6-tetramethyl-3H-pyran-4-yl)pyridine-3-carboxamide] | +++ (“+++” means <3 uM)

Continued, values first:

Row | EC30 | Compound
14 | +++ (“+++” means <3 uM) | CC(C)(C)c1ccc(C(=O)NS(=O)(=O)c2cccc(N)n2)c(OC2CC3CCC2C3)n1 (stereo not drawn) [Compound 1349, N-[(6-amino-2-pyridyl)sulfonyl]-6-tert-butyl-2-norbornan-2-yloxy-pyridine-3-carboxamide]
15 | + (“+” means greater than 10 uM) | Cc1ccc(F)c(-c2nc(C(C)(C)C)ccc2C(=O)NS(=O)(=O)c2cccc(N)c2)c1 [Compound 1350, N-(3-aminophenyl)sulfonyl-6-tert-butyl-2-(2-fluoro-5-methyl-phenyl)pyridine-3-carboxamide]
16 | +++ (“+++” means <3 uM) | CC1CN(c2nc(-c3ccc(OC(C)C)nc3)ccc2C(=O)NS(=O)(=O)c2ccn[nH]2)C(C)(C)C1 (stereo not drawn) [Compound 1352, 6-(6-isopropoxy-3-pyridyl)-N-(1H-pyrazol-5-ylsulfonyl)-2-(2,2,4-trimethylpyrrolidin-1-yl)pyridine-3-carboxamide]
17 | +++ (“+++” means <3 uM) | CC(C)Oc1ccc(-c2ccc(C(=O)NS(=O)(=O)c3cccc(N)n3)c(N3CCC[C@H]3C)n2)cn1 [Compound 1354, N-[(6-amino-2-pyridyl)sulfonyl]-6-(6-isopropoxy-3-pyridyl)-2-[(2R)-2-methylpyrrolidin-1-yl]pyridine-3-carboxamide]
18 | +++ (“+++” means <3 uM) | CCOc1nc(-c2ccc(C(=O)NS(=O)(=O)c3cccc(N)n3)c(N3CC(C)CC3(C)C)n2)ccc1C (stereo not drawn) [Compound 1363, N-[(6-amino-2-pyridyl)sulfonyl]-6-(6-ethoxy-5-methyl-2-pyridyl)-2-(2,2,4-trimethylpyrrolidin-1-yl)pyridine-3-carboxamide]
19 | +++ (“+++” means <3 uM) | CC1CN(c2nc(C(C)(C)C)c(-c3ccccc3)cc2C(=O)NS(=O)(=O)c2cccc(N)n2)C(C)(C)C1 (stereo not drawn) [Compound 1364, N-[(6-amino-2-pyridyl)sulfonyl]-6-tert-butyl-5-phenyl-2-(2,2,4-trimethylpyrrolidin-1-yl)pyridine-3-carboxamide]
20 | +++ (“+++” means <3 uM) | Cc1cc(C)c(Oc2nc(C3=CCN(C(=O)OC(C)C)CC3)ccc2C(=O)NS(=O)(=O)c2cccc(N)n2)c(C)c1 [Compound 1366, isopropyl 4-[5-[(6-amino-2-pyridyl)sulfonylcarbamoyl]-6-(2,4,6-trimethylphenoxy)-2-pyridyl]-3,6-dihydro-2H-pyridine-1-carboxylate]
21 | +++ (“+++” means <3 uM) | C[C@@H]1CN(c2nc(C3=CC(C)(C)OCC3)ccc2C(=O)NS(=O)(=O)c2cccc(N)n2)C(C)(C)C1 [Compound 1369, N-[(6-amino-2-pyridyl)sulfonyl]-6-(6,6-dimethyl-2,3-dihydropyran-4-yl)-2-[(4S)-2,2,4-trimethylpyrrolidin-1-yl]pyridine-3-carboxamide]
